{
  "source": "patent US5451518A",
  "about": "“Purified human ceramide-activated protein kinase” (Sloan-Kettering Institute for Cancer Research, priority 1992, dated 1995)",
  "key": {"[1]": {"tested_on": "phosphatidyl-choline, lysophosphatidylcholine, sphingosylphosphorylcholine, 1,2-diacylglycerol", "assay": "Other choline-containing lipids and diacylglycerol in HL-60 cell-free system", "type": "biochemical, human", "conditions": "TNF-α"}, "[2]": {"tested_on": "HL-60 cells", "conditions": "cited from earlier work"}, "[3]": {"tested_on": "HL-60 cells", "conditions": "cited from earlier work", "remark": "listed apart in the source"}, "[4]": {"tested_on": "ceramide-activated protein kinase", "assay": "Ceramide-activated protein kinase activity in HL-60 cell-free system", "type": "biochemical, human", "experimental": "HL-60 cells were incubated in serum-free medium and homogenized (as in FIGS. 9A and 9B). […] ATP (750 μM, 4000 dpm pmol^-1), and 75 μl of reaction buffer (40). The reaction was terminated by adding 30 μl of 0.5M ATP in 90% formic acid. Phosphorylated peptide was first run on a C18 Sep-Pak cartridge, then resolved by C18 reverse-phase HPLC (Waters, Milford, Mass.), with a linear gradient of acetonitrile. The peptide eluted at 30% acetonitrile, as determined by monitoring Cerenkov radiation in 1-ml fractions. Background activity was subtracted from each point. (FIG. 10A) Kinetics of TNF-α (30 nM)-stimulated EGFR peptide phosphorylation. Values (mean) represent data from four experiments. (FIG. 10B) Concentration dependence of EGFR peptide phosphorylation at 5 minutes of stimulation with TNF-α (0.01 to 30 nM). Values (mean) represent data derived from duplicate points in two experiments. The SEM of the values in (FIG. 10A) was 18% and the mean range of values in (FIG. 10B) was 3%.\nPeptide phosphorylation was measured as in FIGS. 10A nad 10B. Control value represents peptide phosphorylation in the absence of phospholipases or TNF-α. Values (mean ± SEM) represent data derived from duplicate samples in three experiments. *P<0.001 compared to control.\n(§1) The binding of TNF-α to its receptor is detectable within 2 minutes and maximal by 5 to 10 minutes at 4° C. in membranes derived from HL-60 cells (41). Therefore, supernates from HL-60 cells, collected after a low-speed centrifugation to remove nuclei, were first incubated with TNF-α for 5 minutes at 4° C. to allow the formation of TNF-receptor complexes. Thereafter, reactions were initiated by warming supernates to 22° C. in a reaction mixture containing adenosine triphosphate (ATP) and Mg^2+ at pH 7.4.\nThe effect of TNF-α on ceramide-activated protein kinase activity was assessed. […] For studies assessing the effect of TNFα in broken cell preparations, nuclei-free supernates were incubated under conditions sufficient for stimulation of neutral sphingomyelinase in a reaction mixture that also contained EGFR peptide and γ-^32 P-labeled ATP. Phosphorylated peptide was resolved by high-performance liquid chromatograph (HPLC) and quantified by Cerenkov counting (40). Kinase activity was calculated from the specific activity of [γ-^32 P] ATP and incorporation of ^32 P into EGFR peptide. Background activity was subtracted from each point. […] If the initial incubation with TNF-α at 4° C. was omitted and TNF was added directly to the reaction mixture at 22° C., the reaction was delayed. […] TNF-α enhanced kinase activity in a concentration-dependent manner at 5 minutes (FIG. 10B). […] This is similar to the ED50 of 200 pM for stimulation of ceramide-activated protein kinase by TNF-α in intact cells (40). TNF-α enhanced kinase activity in a total of 20 separate studies.\nControl activity reflects several TNF-α-independent protein kinases that are known to phosphorylate EGFR peptide on Thr^669."}, "[5]": {"tested_on": "ceramide-activated protein kinase", "conditions": "cited from earlier work"}, "[6]": {"tested_on": "ceramide (HL-60 nuclei-free supernate)", "assay": "Ceramide content in HL-60 cell-free system", "type": "biochemical, human", "experimental": "(§2) HL-60 cells were grown in RPMI 1640 medium supplemented with 10% bovine calf serum and amino acids (4). To measure sphingomyelin, cells were resuspended (1×10^6 ml^-1), labeled for 48 hours in medium with [^3 H]choline (1 μCi ml^-1) (57), in serum-free medium containing bovine insulin (5 μg ml^-1) and human transferrin (5 μg ml^-1). After 3 hours, cells were resuspended (150×10^6 ml^-1) in homogenization buffer (50 mM NaF, 5 mM EGTA, and 25 mM Hepes, pH 7.4), disrupted at 4° C. with 150 strokes of a tight-fitting Dounce homogenizer (Fisher Scientific, Pittsburgh, Pa.), and centrifuged for 5 minutes (500 g). The nuclei-free supernate was first incubated for 5 minutes at 4° C. with 30 nM human TNF-α (Genentech, South San Francisco, Calif.) or diluent ( 50 mMHepes, pH 7.4). At time zero, 15 μl of supernate (112 μg per incubation) were added to a reaction mixture containing 30 μl of 25 mM Hepes, pH 7.4, 30 μl of 750 μM ATP, and 75 μl of reaction buffer (50 mM Hepes, pH 7.4 and 20 mM MgCl2) at 22° C. The reaction was terminated with CHCl3 :CH3 OH:HCl (100:100:1, v/v/v) (3, 4, 13) and 150 μl of balanced salt solution (135 mM NaCl, 4.5 mM KCl, 1.5 mM CaCl2, 0.5 mM MgCl2, 5.6 mM glucose, and 10 mM Hepes, pH 7.2) containing 20 mM EDTA. Lipids in the organic phase extract were subjected to alkaline methanolysis to remove glycerophospholipids (4). Sphingomyelin recovery in the nuclei-free supernate was 93% of that in intact cells. A measure of 10^6 cell equivalents of supernate contained 50 μg of protein. Sphingomyelin was resolved by thin-layer chromatograhy (TLC) with CHCl3 :CH3 OH:CH3 COOH:H2 O (25:15:4:1.5 ) as solvent, identified by iodine vapor staining and quantified by liquid scintillation spectrometry (1, 8, 56). Ceramide was quantified with the diacyglycerol kinase reaction (4, 57). Values (mean) are derived from triplicate determinations from one experiment representative of three similar studies for sphingomyelin and four similar studies for ceramide.\nas §1\nThese conditions were adopted to allow for activation of neutral sphingomyelinase (1, 42). […] Under the same conditions, ceramide increased quantitatively from 1.8±0.3 to 4.0±0.5 nmol mg^-1 (FIG. 9B). […]"}, "[7]": {"tested_on": "sphingomyelin (HL-60 nuclei-free supernate)", "assay": "Sphingomyelin content in HL-60 cell-free system", "type": "biochemical, human", "experimental": "as §2, §1\nThese conditions were adopted to allow for activation of neutral sphingomyelinase (1, 42). Under these conditions, TNF-α induced a time- and concentration-dependent reduction in sphingomyelin content (FIG. 9A). the effect of TNF-α was evident at 1 minute and maximal by 7.5 minutes. Sphingomyelin concentrations decreased 27% from a control concentration of 10.4±0.5 (mean ± SEM) to 7.6±0.2 nmol per milligram (nmol mg^-1) of supernate protein (P<0.001). […] Concentrations of TNF-α of 300 pM were ineffective, with a maximal effect at 3 nMTNF-α [effective dose (ED50)≈500 pM]. Under the same conditions, ceramide increased quantitatively from 1.8±0.3 to 4.0±0.5 nmol mg^-1 (FIG. 9B). This effect was detectable at 1 minute (P<0.001) and maximal by 7.5 minutes. Thus, 2.8 nmol of sphingomyelin per milligram of supernate protein were lost for each 2.2 nmol of ceramide per milligram of supernate protein that was generated. […] Other choline-containing lipids, including phosphatidyl-choline, lysophosphatidylcholine, sphingosylphosphorylcholine(1), and 1,2-diacylglycerol were not affected by TNF-α."}, "[8]": {"tested_on": "ceramide-activated protein kinase"}},
  "note": "Entries after “also recorded” stand apart in the source; their conditions may differ. Where two headings read alike, the source gives them in different places.",
  "data": [
    {"substance": "TNF-α", "values": [
      {"measurement": "effect on phosphatidyl-choline, lysophosphatidylcholine, sphingosylphosphorylcholine and 1,2-diacylglycerol", "setting": "[1]", "value": "not affected"},
      {"measurement": "maximally effective concentration for generation of ceramide", "setting": "[2]; also for monocyte differentiation", "value": 30, "unit": "nM"},
      {"measurement": "sphingomyelin degradation to ceramide / ceramide level (in words)", "setting": "[2]", "value": "increase cellular levels of ceramide within minutes; also recorded: activates a neutral sphingomyelinase to generate ceramide"},
      {"measurement": "sphingomyelin degradation to ceramide / ceramide level (in words)", "setting": "[2]; listed as Tumor necrosis factor (TNF) α", "value": "stimulate sphingomyelin degradation to ceramide"},
      {"measurement": "monocytic differentiation", "setting": "[3]", "value": "induce monocytic differentiation"},
      {"measurement": "delay before enhancement of kinase activity", "setting": "[4]; TNF added directly at 22° C., no 4° C. incubation", "value": 2, "unit": "min"},
      {"measurement": "duration of stimulation of kinase activity", "setting": "[4]; TNF-α 30 nM", "value": "at least 10 minutes"},
      {"measurement": "time at which stimulation of kinase activity was evident", "setting": "[4]; TNF-α 30 nM", "value": "evident by i minute"},
      {"measurement": "effect on kinase activity (in words)", "setting": "[4]; TNF-α 30 nM, GTP, GTP-γ-S 0.25 to 200 μM, SMase 1×10^-3 U ml^-1, 5 minutes, phospholipases 40- to 400-fold higher", "value": "enhanced kinase activity (P<0.001)"},
      {"measurement": "concentration for maximal effect", "setting": "[4]; TNF-α, 5 minutes", "value": 3, "unit": "nM"},
      {"measurement": "effective concentration", "setting": "[4]; TNF-α, 5 minutes", "value": 10, "unit": "pM"},
      {"measurement": "ED50 for kinase activity", "setting": "[4]; TNF-α, 5 minutes, cell-free", "value": "≈ 300 pM"},
      {"measurement": "effect on kinase activity (in words)", "setting": "[5]; intact HL-60 cells", "value": "rapidly increased; also recorded: similarly enhanced kinase activity in intact cells"},
      {"measurement": "ED50 for stimulation of ceramide-activated protein kinase", "setting": "[5]; intact cells", "value": 0.2, "unit": "nM"},
      {"measurement": "ceramide generated", "setting": "[6]; TNF-α", "value": "2.2 nmol per milligram of supernat"},
      {"measurement": "time to maximal ceramide increase", "setting": "[6]; TNF-α", "value": "≤ 7.5", "unit": "min"},
      {"measurement": "time at which ceramide increase was detectable", "setting": "[6]; TNF-α, P<0.001", "value": 1, "unit": "min"},
      {"measurement": "ceramide concentration after TNF-α", "setting": "[6]; from 1.8±0.3", "value": "4.0 ± 0.5", "unit": "nmol/mg"},
      {"measurement": "concentration for maximal effect on sphingomyelin", "setting": "[7]; TNF-α", "value": 3, "unit": "nM"},
      {"measurement": "effective dose (ED50), sphingomyelin reduction", "setting": "[7]; TNF-α", "value": "≈ 500 pM"},
      {"measurement": "sphingomyelin lost", "setting": "[7]; TNF-α", "value": "2.8 nmol per milligram of supernat"},
      {"measurement": "time at which sphingomyelin reduction was evident", "setting": "[7]; TNF-α", "value": 1, "unit": "min"},
      {"measurement": "time to maximal sphingomyelin reduction", "setting": "[7]; TNF-α", "value": "≤ 7.5", "unit": "min"},
      {"measurement": "decrease in sphingomyelin concentration", "setting": "[7]; TNF-α, P<0.001", "value": 27, "unit": "%"},
      {"measurement": "sphingomyelin concentration after TNF-α", "setting": "[7]; mean ± SEM, control 10.4±0.5, P<0.001", "value": "7.6±0.2 nmol per milligram (nmol mg^-1) of supernate protein"},
      {"measurement": "increase in kinase activity", "setting": "[8]; TNF-α 3 pM, 60 minutes", "value": "1.1 -fold of control"},
      {"measurement": "increase in kinase activity", "setting": "[8]; TNF-α 30 nM, 5 minutes", "value": "1.5 -fold of control"},
      {"measurement": "maximal effect on kinase activity", "setting": "[8]; TNF-α 30 nM, 60 minutes", "value": "1.8 -fold of control"},
      {"measurement": "increase in kinase activity", "setting": "[8]; TNF-α 30 nM, 2 hours", "value": "2.2 -fold of control"},
      {"measurement": "increase in kinase activity", "setting": "[8]; TNF-α 30 nM, 2 hours, listed as TNF", "value": "2 -fold of control"},
      {"measurement": "ED50 for kinase activity", "setting": "[8]; TNF-α, 60 minutes, intact cells", "value": "≈ 200 pM"}
    ]}
  ]
}
